For 20 compounds, IC50 results are on record in US20250051327A1, “MALT-1 MODULATORS” (EXSCIENTIA AI LIMITED, priority 2020, published 2025).

Experiment [1] deals with IL-2 secretion by human effector memory T cells (TEM). Briefly: Effector memory T cells IL-2 release assay. In kind it is cell-based. The note with it: T-cell; human CD4+ effector memory T cells, CD3/CD28 bead stimulation, 24 h; read-out: CD4TC IL2 IC50. The gist of the method:
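Human CD4+ effector memory T cells from healthy-donor buffy coats were stimulated with anti-CD3/CD28 Dynabeads and exposed to 10 semi-log compound doses (0.1% DMSO) for 24 h at 37 °C. Supernatant IL-2 was measured by HTRF, and IC50 came from a 4-parameter logistic fit to maximal IL-2. Viability was checked by flow cytometry.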

The target in experiment [2] is Recombinant human MALT-1 (amino acids 340-824) (Homo sapiens (Human), UniProt Q9UDY8). Briefly: MALT-1 inhibition assay (fluorogenic substrate Ac-LRSR-Rh110-DP). The note with it: recombinant human MALT-1, substrate Ac-LRSR-Rh110-DP. The class given is biochemical. The procedure, abridged: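 MALT-1 at 3 nM final was reacted with 10 μM Ac-LRSR-Rh110-DP, with substrate addition starting the reaction. Incubation ran 60 minutes at 25° C in the dark. Percent inhibition from fluorescence across doses was fitted to a 4-parameter logistic to give IC50.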
Sequence of Recombinant human MALT-1 (amino acids 340-824) (Q9UDY8 340-824): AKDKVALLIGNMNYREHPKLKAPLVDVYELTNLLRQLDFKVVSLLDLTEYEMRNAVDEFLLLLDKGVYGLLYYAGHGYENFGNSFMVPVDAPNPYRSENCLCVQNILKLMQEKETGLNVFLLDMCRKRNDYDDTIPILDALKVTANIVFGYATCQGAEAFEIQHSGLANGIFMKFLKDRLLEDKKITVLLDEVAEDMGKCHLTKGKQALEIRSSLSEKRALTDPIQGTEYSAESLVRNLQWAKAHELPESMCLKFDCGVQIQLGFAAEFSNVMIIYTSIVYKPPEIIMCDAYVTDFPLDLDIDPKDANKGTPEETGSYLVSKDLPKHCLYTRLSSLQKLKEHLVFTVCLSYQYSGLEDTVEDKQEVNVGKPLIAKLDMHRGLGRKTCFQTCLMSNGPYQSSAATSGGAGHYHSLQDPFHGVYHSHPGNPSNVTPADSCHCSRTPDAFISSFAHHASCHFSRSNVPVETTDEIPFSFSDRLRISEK

As a reminder, the IC50 is the concentration that gives 50% inhibition.

For the compound `CN(C(=O)C1CCS(=O)(=O)CC1)[C@@H](c1ccc(N2CCCc3c2cnc2cc(Cl)nn32)cn1)C(F)(F)F` [CPD0073056, N-[(1S)-1-[5-(4-chloro-2,3,7,10-tetrazatricyclo[7.4.0.0^2,6]trideca-1(9),3,5,7-tetraen-10-yl)-2-pyridyl]-2,2,2-trifluoro-ethyl]-N-methyl-1,1-dioxo-thiane-4-carboxamide], the values for the IC50 in experiment [1] and in experiment [2] were 780 nM and 197 nM, respectively.

On to `COC(=O)N(C)[C@@H](c1ccc(N2CCCc3c2cnc2cc(Cl)nn32)cc1)C(F)(F)F` [CPD0021733, Methyl N-[(1S)-1-(4-{4-chloro-2,3,7,10-tetraazatricyclo[7.4.0.0^2,6]trideca-1(9),3,5,7-tetraen-10-yl}phenyl)-2,2,2-trifluoroethyl]-N-methylcarbamate], for which the results for the IC50 in experiment [1] and in experiment [2] were 412 nM and 339 nM, respectively.

With `CC1CCN(c2ccc([C@H](N(C)C(=O)C3CCS(=O)(=O)CC3)C(F)(F)F)cc2)c2cnc3cc(Cl)nn3c21` (single isomer, unassigned) [CPD0021811], the IC50 in experiment [1] stood at 82 nM; in experiment [2], 68 nM.

With `C[C@H]1CCN(c2ccc([C@H](N(C)C(=O)[C@H]3CC[S@](=N)(=O)CC3)C(F)(F)F)cc2)c2cnc3cc(Cl)nn3c21` (relative stereo) [CPD0073195, (1rel-R,4rel-R)-N-[(1S)-1-{4-[(13rel-S)-4-chloro-13-methyl-2,3,7,10-tetraazatricyclo[7.4.0.0^2,6]trideca-1(9),3,5,7-tetraen-10-yl]phenyl}-2,2,2-trifluoroethyl]-1-imino-N-methyl-1-oxo-1λ^6-thiane-4-carboxamide], the results for the IC50 in experiment [1] and in experiment [2] were 51 nM and 22 nM, respectively.

Consider `CN1C[C@H](C(=O)N(C)[C@@H](c2ccc(N3CCCc4c3cnc3cc(Cl)nn43)cc2)C(F)(F)F)CC1=O` (relative stereo) [CPD0073556, (3rel-R)-N-[(1S)-1-(4-{4-chloro-2,3,7,10-tetraazatricyclo[7.4.0.0^2,6]trideca-1(9),3,5,7-tetraen-10-yl}phenyl)-2,2,2-trifluoroethyl]-N,1-dimethyl-5-oxopyrrolidine-3-carboxamide], for which the IC50 came out at 200 nM in experiment [1] and 79 nM in experiment [2].

Regarding `CN(C(=O)C1CCSCC1)[C@@H](c1ccc(N2CCCc3c2cnc2cc(Cl)nn32)cc1)C(F)(F)F` [CPD0019482, N-[(1S)-1-(4-{4-chloro-2,3,7,10-tetraazatricyclo[7.4.0.0^2,6]trideca-1(9),3,5,7-tetraen-10-yl}phenyl)-2,2,2-trifluoroethyl]-N-methylthiane-4-carboxamide], the IC50 in experiment [1] turned out to be 146 nM; in experiment [2] it was 91 nM.

On to `CN(C(=O)C1CCCCO1)[C@@H](c1ccc(N2CCCc3c2cnc2cc(Cl)nn32)cc1)C(F)(F)F` (stereo partly drawn) [CPD0021569, N-[(1S)-1-(4-{4-chloro-2,3,7,10-tetraazatricyclo[7.4.0.0^2,6]trideca-1(9),3,5,7-tetraen-10-yl}phenyl)-2,2,2-trifluoroethyl]-N-methyloxane-2-carboxamide], for which the IC50 turned out to be 325 nM in experiment [1] and 211 nM in experiment [2].

As for `CN(C(=O)[C@H]1CC[S@+]([O-])CC1)[C@@H](c1ccc(N2CCCc3c2cnc2cc(Cl)nn32)cc1)C(F)(F)F` (relative stereo) [CPD0022137, (1rel-r,4rel-r)-N-[(1S)-1-(4-{4-chloro-2,3,7,10-tetraazatricyclo[7.4.0.0^2,6]trideca-1(9),3,5,7-tetraen-10-yl}phenyl)-2,2,2-trifluoroethyl]-N-methyl-1-oxo-1λ^4-thiane-4-carboxamide], the values for the IC50 in experiment [1] and in experiment [2] were 127 nM and 73 nM, respectively.

For `CN(C(=O)[C@@H]1CC(=O)N1)[C@@H](c1ccc(N2CCCc3c2cnc2cc(Cl)nn32)cc1)C(F)(F)F` [CPD0075870, (2S)-N-[(1S)-1-[4-(4-chloro-2,3,7,10-tetrazatricyclo[7.4.0.0^2,6]trideca-1(9),3,5,7-tetraen-10-yl)phenyl]-2,2,2-trifluoro-ethyl]-N-methyl-4-oxo-azetidine-2-carboxamide], the IC50 stood at 120 nM in experiment [1] and 63 nM in experiment [2].

In the case of `CN(C(=O)N1CCS(=O)(=O)CC1)[C@@H](c1ccc(N2CCCc3c2cnc2cc(Cl)nn32)cc1)C(F)(F)F` [CPD0072804, N-[(1S)-1-(4-{4-chloro-2,3,7,10-tetraazatricyclo[7.4.0.0^2,6]trideca-1(9),3,5,7-tetraen-10-yl}phenyl)-2,2,2-trifluoroethyl]-N-methyl-1,1-dioxo-1λ^e-thiomorpholine-4-carboxamide], the IC50 in experiment [1] was 307 nM; in experiment [2], 159 nM.

Take `COc1ccc2ncc(Nc3ccc([C@H](N(C)C(=O)[C@H]4CC[S@@](=N)(=O)CC4)C(F)(F)F)cc3)c([C@H](C)OC)c2n1` (stereo in doubt) [CPD0073129, (1 rel-s,4rel-s)-1-imino-N-methyl-1-oxo-N-[(1S)-2,2,2-trifluoro-1-[4-({6-methoxy-4-[(1 rel-S)-1-methoxyethyl]-1,5-naphthyridin-3-yl}amino)phenyl]ethyl]-1λ^6-thiane-4-carboxamide]: the 50% inhibitory concentration (IC50) is 36 nM in experiment [1] and 64 nM in experiment [2].

With `C[C@@H]1CCN(c2ccc([C@H](N(C)C(=O)[C@@H]3CCC(=O)NC3)C(F)(F)F)cc2)c2cnc3cc(Cl)nn3c21` (relative stereo) [CPD0074561, (3rel-R)-N-[(1S)-1-[4-[(13rel-R)-4-chloro-13-methyl-2,3,7,10-tetrazatricyclo[7.4.0.0^2,6]trideca-1(9),3,5,7-tetraen-10-yl]phenyl]-2,2,2-trifluoro-ethyl]-N-methyl-6-oxo-piperidine-3-carboxamide], the results for the IC50 in experiment [1] and in experiment [2] were 92 nM and 29 nM, respectively.

As for `CN(C)CC(=O)N1CC[C@@H](C(=O)N(C)[C@@H](c2ccc(N3CCCc4c3cnc3cc(Cl)nn43)cc2)C(F)(F)F)C1` (relative stereo) [CPD0075877, (3rel-S)-N-[(1S)-1-[4-(4-chloro-2,3,7,10-tetrazatricyclo[7.4.0.0^2,6]trideca-1(9),3,5,7-tetraen-10-yl)phenyl]-2,2,2-trifluoro-ethyl]-1-[2-(dimethylamino)acetyl]-N-methyl-pyrrolidine-3-carboxamide], the values for the IC50 in experiment [1] and in experiment [2] were 172 nM and 115 nM, respectively.

With `CN(C(=O)N1CCOCC1)[C@@H](c1ccc(N2CCCc3c2cnc2cc(Cl)nn32)cc1)C(F)(F)F` [CPD0073084, N-[(1S)-1-(4-{4-chloro-2,3,7,10-tetraazatricyclo[7.4.0.0^2,6]trideca-1(9),3,5,7-tetraen-10-yl}phenyl)-2,2,2-trifluoroethyl]-N-methylmorpholine-4-carboxamide], the values for the IC50 in experiment [1] and in experiment [2] were 255 nM and 168 nM, respectively.

For the compound `CN(C(=O)C1C2CS(=O)(=O)CC21)[C@@H](c1ccc(N2CCCc3c2cnc2cc(Cl)nn32)cc1)C(F)(F)F` (stereo partly drawn) [CPD0072801, N-[(1S)-1-(4-{4-chloro-2,3,7,10-tetraazatricyclo[7.4.0.0^2,6]trideca-1(9),3,5,7-tetraen-10-yl}phenyl)-2,2,2-trifluoroethyl]-N-methyl-3,3-dioxo-3λ^6-thiabicyclo[3.1.0]hexane-6-carboxamide], the IC50 in experiment [1] is 147 nM; in experiment [2] it was 95 nM.

`CN(C(=O)C1CCS(=O)(=O)CC1)[C@@H](c1ccc(N2CCCc3c2cnc2c(Cl)cnn32)cc1)C(F)(F)F` [CPD0021751, N-[(1S)-1-(4-{5-chloro-2,3,7,10-tetraazatricyclo[7.4.0.0^2,6]trideca-1(9),3,5,7-tetraen-10-yl}phenyl)-2,2,2-trifluoroethyl]-N-methyl-1,1-dioxo-1λ^6-thiane-4-carboxamide]: the IC50 in experiment [1] worked out at 3280 nM; in experiment [2], 2120 nM.

With `CN(C(=O)[C@@H](O)C1CCS(=O)(=O)CC1)[C@@H](c1ccc(N2CCCc3c2cnc2cc(Cl)nn32)cc1)C(F)(F)F` (relative stereo) [CPD0073973, (2rel-S)—N-[(1S)-1-(4-{4-chloro-2,3,7,10-tetraazatricyclo[7.4.0.0^2,6]trideca-1(9),3,5,7-tetraen-10-yl}phenyl)-2,2,2-trifluoroethyl]-2-(1,1-dioxo-1λ^e-thian-4-yl)-2-hydroxy-N-methylacetamide], the values for the IC50 in experiment [1] and in experiment [2] were 149 nM and 57 nM, respectively.

In the case of `COc1ccc2ncc(Nc3ccc([C@H](N(C)C(=O)[C@@H]4CCN(C(=O)CO)C4)C(F)(F)F)cc3)c([C@H](C)OC)c2n1` (relative stereo) [CPD0075883, (3 rel R)-1-(2-hydroxyacetyl)-N-methyl-N-[(1S)-2,2,2-trifluoro-1-[4-[[6-methoxy-4-[(1 rel S-1-methoxyethyl]-1,5-naphthyridin-3-yl]amino]phenyl]ethyl]pyrrolidine-3-carboxamide], the IC50 in experiment [1] was 47 nM; in experiment [2] it was 52 nM.

For the compound `CN(C(=O)C1CCN(C(=O)CO)CC1)[C@@H](c1ccc(N2CCCc3c2cnc2cc(Cl)nn32)cc1)C(F)(F)F` [CPD0073091, N-[(1S)-1-(4-{4-chloro-2,3,7,10-tetraazatricyclo[7.4.0.0^2,6]trideca-1(9),3,5,7-tetraen-10-yl}phenyl)-2,2,2-trifluoroethyl]-1-(2-hydroxyacetyl)-N-methylpiperidine-4-carboxamide], the IC50 in experiment [1] came out at 101 nM; in experiment [2], 59 nM.

Turning to `CN=[S@]1(=O)CC[C@H](C(=O)N(C)[C@@H](c2ccc(N3CCCc4c3cnc3cc(Cl)nn43)cc2)C(F)(F)F)CC1` (relative stereo) [CPD0072531, (1rel-R,4rel-R)—N-[(1S)-1-(4-{4-chloro-2,3,7,10-tetraazatricyclo[7.4.0.0^2,6]trideca-1(9),3,5,7-tetraen-10-yl}phenyl)-2,2,2-trifluoroethyl]-N-methyl-1-(methylimino)-1-oxo-1λ^e-thiane-4-carboxamide], the IC50 in experiment [1] worked out at 141 nM; in experiment [2], 38 nM.
